The values below are quoted from earlier work in patent US10332616B2, “Movable type method applied to protein-ligand binding” (University of Florida Research Foundation, Inc., priority 2013, dated 2019).

[1] abbreviates: experimental solvation free energy, test set with 372 neutral compounds.
Where [2] appears, read: aqueous solvation free energy, charged compounds (ions).
The mark [3] stands for this setting: experimental solvation free energy, neutral compounds test set.

Like-named read-outs stand apart in the source and are kept apart here.

Regarding `CCCCl` [Compound 0167chla], the “Exp. ΔGsolv” value under setting [1] is -0.27 kcal/mol.
`Cc1cccnc1` [Compound 0120met]: under setting [1], the “Exp. ΔGsolv” value is -4.77 kcal/mol.
As to `O=C(O)C(F)(F)F` [i118, trifluoroaceticacid, reference compound], the “Exp. ΔGsolv” value under setting [2] was -59.30 kcal/mol.
Take `CC(C)O` [Compound 0048pro]: the “Exp. ΔGsolv” value under setting [3] is -1.76 kcal/mol.
`Nc1c(Cl)c(Cl)nc(C(=O)O)c1Cl` [Compound 0428ami]: the “Exp. ΔGsolv” value under setting [3] is -11.96 kcal/mol.
On to `BrC(Br)Br` [Compound 0179tri], for which, under setting [1], the “Exp. ΔGsolv” value was -1.98 kcal/mol.
In the case of `C=CCCC` [Compound 0027pen], under setting [1], the “Exp. ΔGsolv” value was 1.66 kcal/mol.
`N` [i047, ammonia, reference compound]: under setting [2], the “Exp. ΔGsolv” value is -85.20 kcal/mol.
Turning to `OCC(F)(F)F` [Compound 0207tri], the “Exp. ΔGsolv” value under setting [3] is -4.31 kcal/mol.
In the case of `COC(=O)c1sccc1S(=O)(=O)NC(=O)Nc1nc(C)nc(OC)n1` [test1054], under setting [3], the “Exp. ΔGsolv” value is -16.2 kcal/mol.
In the case of `ClCCOCCCl` [test0007], the “Exp. ΔGsolv” value under setting [3] is -4.23 kcal/mol.
On to `CCS` [Compound 0137ethb], for which the “Exp. ΔGsolv” value under setting [3] is -1.3 kcal/mol.
`CCOP(=O)(OCC)O/C(=C\Cl)c1ccc(Cl)cc1Cl` [test1019]: under setting [3], the “Exp. ΔGsolv” value is -7.1 kcal/mol.
Consider `CCOCCOCC` [test0014], for which, under setting [3], the “Exp. ΔGsolv” value is -3.54 kcal/mol.
On to `CCSCC` [Compound 0142die], for which the “Exp. ΔGsolv” value under setting [3] was -1.43 kcal/mol.
In the case of `CC1CCCCC1` [Compound 0019met], the “Exp. ΔGsolv” value under setting [1] is 1.71 kcal/mol.
Take `CS` [Compound 0136met]: the “Exp. ΔGsolv” value under setting [3] is -1.24 kcal/mol.
Consider `ClC1=C(Cl)C2(Cl)C3C4CC(C5OC45)C3C1(Cl)C2(Cl)Cl` (centres unmarked) [test1030], for which the “Exp. ΔGsolv” value under setting [3] is -5.5 kcal/mol.
`CCOCC` [Compound 0063die]: the “Exp. ΔGsolv” value under setting [3] is -1.76 kcal/mol.
For `O=C(O)CCl` [i119, chloroaceticacid, reference compound], the “Exp. ΔGsolv” value under setting [2] is -69.70 kcal/mol.
For `ClC(Cl)(Cl)C(Cl)(Cl)Cl` [Compound 0408hex], under setting [1], the “Exp. ΔGsolv” value was -1.4 kcal/mol.
For the compound `FC(F)(F)c1cccc(C(F)(F)F)c1` [test0004], the “Exp. ΔGsolv” value under setting [1] is 1.07 kcal/mol.
As for `c1c[nH]cn1` [test0017], the “Exp. ΔGsolv” value under setting [1] is -9.81 kcal/mol.
As for `COc1ccccc1C(=O)O` [test3007], the “Exp. ΔGsolv” value under setting [3] is -10.32 kcal/mol.
As for `CC(C)Cl` [Compound 0168chl], the “Exp. ΔGsolv” value under setting [1] is -0.25 kcal/mol.
Regarding `CN1CCN(C)CC1` [Compound 0114NNd], under setting [3], the “Exp. ΔGsolv” value is -7.58 kcal/mol.
Regarding `C=COCC(F)(F)F` [Compound 0214tri], the “Exp. ΔGsolv” value under setting [3] is -0.12 kcal/mol.
Regarding `FCCl` [Compound 0198chl], the “Exp. ΔGsolv” value under setting [1] was -0.77 kcal/mol.
`CCOOCC` [ethylperoxide, reference compound]: where the note is “neutral molecule”, the ΔGsol experimental value is -5.32 kcal/mol.
With `COP(=S)(OC)SCn1nnc2ccccc2c1=O` [test1010], the “Exp. ΔGsolv” value under setting [3] was -10 kcal/mol.
For `CCCCCCCO` [Compound 0058hep], the “Exp. ΔGsolv” value under setting [3] is -4.24 kcal/mol.
With `COC(OC)(OC)C(F)(F)F` [test2029], the “Exp. ΔGsolv” value under setting [3] is -0.8 kcal/mol.
As for `CC(=O)c1ccccc1` [Compound 0084met], the “Exp. ΔGsolv” value under setting [1] is -4.58 kcal/mol.
Take `CCCBr` [Compound 0182bro]: under setting [1], the “Exp. ΔGsolv” value was -0.56 kcal/mol.
As for `C=CCl` [Compound 0169chl], under setting [1], the “Exp. ΔGsolv” value was -0.59 kcal/mol.
Consider `CCCOC(C)=O` [Compound 0097pro], for which the “Exp. ΔGsolv” value under setting [3] was -2.86 kcal/mol.
For the compound `Nc1ccc(N)c2c1C(=O)c1c(N)ccc(N)c1C2=O` [test1060], the “Exp. ΔGsolv” value under setting [3] was -8.9 kcal/mol.
`Clc1ccccc1-c1ccccc1Cl` [Compound 0414dcl]: under setting [1], the “Exp. ΔGsolv” value was -2.73 kcal/mol.
Turning to `Cc1ccnc(C)c1` [Compound 0123dim], the “Exp. ΔGsolv” value under setting [1] was -4.86 kcal/mol.
`C1CCNCC1` [Compound 0225pipa]: the “Exp. ΔGsolv” value under setting [3] is -5.11 kcal/mol.
For the compound `COC` [Compound 0060dim], the “Exp. ΔGsolv” value under setting [3] is -1.92 kcal/mol.
For `Oc1ccccc1` [Compound 0053phe], the “Exp. ΔGsolv” value under setting [3] was -6.62 kcal/mol.
With `CC(C)=O` [Compound 0075pro], the “Exp. ΔGsolv” value under setting [1] was -3.85 kcal/mol.
Turning to `Cc1ccccc1Cl` [Compound 0413clt], under setting [1], the “Exp. ΔGsolv” value was -1.15 kcal/mol.
Consider `CCCCC(=O)OC` [Compound 0098met], for which the “Exp. ΔGsolv” value under setting [3] was -2.57 kcal/mol.
Consider `FC(F)(F)C(F)(F)F` [Compound 0405hex], for which, under setting [1], the “Exp. ΔGsolv” value was 3.94 kcal/mol.
On to `COc1ccc2cc([C@H](C)C(=O)O)ccc2c1` [test2021], for which, under setting [3], the “Exp. ΔGsolv” value is -10.21 kcal/mol.
Regarding `CC(C)CO[N+](=O)[O-]` [test1005], the “Exp. ΔGsolv” value under setting [1] was -1.9 kcal/mol.
Turning to `CSc1nc(NC(C)C)nc(NC(C)C)n1` [test1047], the “Exp. ΔGsolv” value under setting [1] was -8.4 kcal/mol.
In the case of `CCCCCC(=O)O` [Compound 0090hex], the “Exp. ΔGsolv” value under setting [3] is -6.21 kcal/mol.
Consider `FC(F)Cl` [Compound 0199chl], for which the “Exp. ΔGsolv” value under setting [1] is -0.5 kcal/mol.
As to `O=[N+]([O-])c1c(Cl)c(Cl)c(Cl)c(Cl)c1Cl` [test2024], under setting [3], the “Exp. ΔGsolv” value was -5.22 kcal/mol.
Take `CC(=O)C(C)(C)C` [Compound 0081dim]: under setting [1], the “Exp. ΔGsolv” value is -2.89 kcal/mol.
For the compound `ClC(Cl)=C(Cl)Cl` [Compound 0204tet], under setting [1], the “Exp. ΔGsolv” value is given as 0.05 kcal/mol.
For the compound `ClC(Cl)Cl` [Compound 0162tri], the “Exp. ΔGsolv” value under setting [1] was -1.07 kcal/mol.
On to `CCC` [Compound 0003pro], for which the “Exp. ΔGsolv” value under setting [1] is reported as 1.96 kcal/mol.
For `Sc1ccccc1` [Compound 0139thi], under setting [3], the “Exp. ΔGsolv” value is -2.55 kcal/mol.
As for `CNC(=O)Oc1cccc2c1OC(C)(C)C2` [test1016], the “Exp. ΔGsolv” value under setting [3] was -9.6 kcal/mol.
As for `C=CCC` [Compound 0025buta], under setting [1], the “Exp. ΔGsolv” value is listed as 1.38 kcal/mol.
In the case of `CC(=O)Nc1ccc(O)cc1` [test3001], the “Exp. ΔGsolv” value under setting [3] is -14.83 kcal/mol.
Turning to `CC(C)C` [Compound 0010met], under setting [1], the “Exp. ΔGsolv” value is 2.32 kcal/mol.
Turning to `Cc1ccccc1N` [n009], the “Exp. ΔGsolv” value under setting [3] was -5.56 kcal/mol.
On to `C=C(C)C` [Compound 0024met], for which the “Exp. ΔGsolv” value under setting [1] is 1.16 kcal/mol.
For the compound `C#CC` [Compound 0031pro], the “Exp. ΔGsolv” value under setting [1] was -0.31 kcal/mol.
On to `FC(F)OC(Cl)C(F)(F)F` (centres unmarked) [Compound 0209chl], for which the “Exp. ΔGsolv” value under setting [3] is given as 0.11 kcal/mol.
With `Cc1ccccc1[N+](=O)[O-]` [Compound 0135met], the “Exp. ΔGsolv” value under setting [1] is -3.59 kcal/mol.
Consider `O=C(O)Cc1ccccc1Nc1c(Cl)cccc1Cl` [test3020], for which the “Exp. ΔGsolv” value under setting [3] is -6.3 kcal/mol.
Take `O=C1CCCC1` [Compound 0077cyc]: under setting [1], the “Exp. ΔGsolv” value was -4.68 kcal/mol.
`CCCCCCCC` [Compound 0008noc]: the “Exp. ΔGsolv” value under setting [1] is 2.89 kcal/mol.
Turning to `C[C@@H]1CCCC[C@@H]1C` [Compound 0020cis], the “Exp. ΔGsolv” value under setting [1] was 1.58 kcal/mol.
As for `C1CC1` [Compound 0016cyc], under setting [1], the “Exp. ΔGsolv” value was 0.75 kcal/mol.
With `COc1ccc(C(=O)N(C)C)cc1` [test0005], the “Exp. ΔGsolv” value under setting [3] was -11.01 kcal/mol.
Consider `CCCC=O` [Compound 0072but], for which the “Exp. ΔGsolv” value under setting [3] is -3.18 kcal/mol.
With `CCCC#N` [Compound 0128butb], the “Exp. ΔGsolv” value under setting [1] was -3.64 kcal/mol.
For `Clc1c(Cl)c(Cl)c(Cl)c(Cl)c1Cl` [test2015], the “Exp. ΔGsolv” value under setting [3] is -2.33 kcal/mol.
`CCCCN` [Compound 0110but]: under setting [3], the “Exp. ΔGsolv” value is -4.29 kcal/mol.
`CC[N+](=O)[O-]` [Compound 0130nit]: the “Exp. ΔGsolv” value under setting [1] is -3.71 kcal/mol.
For the compound `CC(Cl)(Cl)Cl` [Compound 0165tri], under setting [1], the “Exp. ΔGsolv” value is -0.25 kcal/mol.
Consider `FC(F)(F)F` [Compound 0200tet], for which, under setting [1], the “Exp. ΔGsolv” value is given as 3.16 kcal/mol.
Regarding `ClC1=C(Cl)C2(Cl)C3C(Cl)C=CC3C1(Cl)C2(Cl)Cl` (centres unmarked) [test1033], under setting [1], the “Exp. ΔGsolv” value was -2.6 kcal/mol.
`CCCS` [Compound 0138pro]: the “Exp. ΔGsolv” value under setting [3] was -1.05 kcal/mol.
Take `c1ccc2cc3ccccc3cc2c1` [Compound 0042ant]: the “Exp. ΔGsolv” value under setting [1] was -4.23 kcal/mol.
`CCCCCN` [Compound 0113pen]: the “Exp. ΔGsolv” value under setting [3] is -4.1 kcal/mol.
With `CCC(=O)O` [i060, propanoicacid, reference compound], under setting [2], the “Exp. ΔGsolv” value is -76.20 kcal/mol.
In the case of `CCCCC(=O)O` [Compound 0089pen], under setting [3], the “Exp. ΔGsolv” value is -6.16 kcal/mol.
As to `N#Cc1c(Cl)cccc1Cl` [Compound 0426dcl], under setting [3], the “Exp. ΔGsolv” value is -5.22 kcal/mol.
As to `O=C(O)CCC(=O)c1ccc(-c2ccccc2)cc1` [test3003], the “Exp. ΔGsolv” value under setting [3] is -12.75 kcal/mol.
For `FC(Br)C(F)(F)F` (centres unmarked) [Compound 0203bro], the “Exp. ΔGsolv” value under setting [1] is 0.52 kcal/mol.
For the compound `Cc1ccc(C(=O)N(C)C)cc1` [test0006], under setting [3], the “Exp. ΔGsolv” value was -9.76 kcal/mol.
Consider `C/C=C/CC` [Compound 0028Epe], for which, under setting [1], the “Exp. ΔGsolv” value is reported as 1.34 kcal/mol.
Consider `CCCCCC(=O)O` [i061, hexanoicacid, reference compound], for which the “Exp. ΔGsolv” value under setting [2] is -74.60 kcal/mol.
`Cc1cccc(C)n1` [Compound 0125dim]: the “Exp. ΔGsolv” value under setting [1] was -4.6 kcal/mol.
In the case of `C=CC=C` [Compound 0023str], the “Exp. ΔGsolv” value under setting [1] is given as 0.61 kcal/mol.
`C#CC=C` [Compound 0148but]: the “Exp. ΔGsolv” value under setting [1] was 0.04 kcal/mol.
Turning to `COc1ccccc1` [Compound 0068ani], the “Exp. ΔGsolv” value under setting [3] was -2.45 kcal/mol.
For `CCCSC(=O)N(CCC)CCC` [test1057], the “Exp. ΔGsolv” value under setting [3] is -4.1 kcal/mol.
`FC(F)(F)C(F)(F)C(F)(F)F` [Compound 0406oct]: the “Exp. ΔGsolv” value under setting [1] is given as 4.28 kcal/mol.
For the compound `CC(C(=O)O)c1ccc(-c2ccccc2)c(F)c1` (centres unmarked) [test2013], under setting [3], the “Exp. ΔGsolv” value is -8.42 kcal/mol.
In the case of `CCCCCCl` [Compound 0410clp], the “Exp. ΔGsolv” value under setting [1] is reported as 0.07 kcal/mol.
For the compound `CCOC(=O)c1ccc(O)cc1` [test2011], under setting [3], the “Exp. ΔGsolv” value is -9.2 kcal/mol.
With `CCCN(CCC)c1c([N+](=O)[O-])cc(C(F)(F)F)cc1[N+](=O)[O-]` [test1056], under setting [1], the “Exp. ΔGsolv” value was -3.3 kcal/mol.
